In the supplement of paper PMC10307832:

How the values were obtained:
Assay in all cases: relative viability (nuclei count vs DMSO), 5 days (fraction); higher = more cells survive
OSI-027 + Palbociclib = compound: COc1cccc2cc(-c3nc([C@H]4CC[C@H](C(=O)O)CC4)n4ncnc(N)c34)[nH]c12 [OSI-027] + CC(=O)c1c(C)c2cnc(Nc3ccc(N4CCNCC4)cn3)nc2n(C2CCCC2)c1=O [Palbociclib] (partner 0.5 µM)
How it was run: (§1)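 Medians of duplicate plates are given as relative viability. That measure is the nuclei count in treated wells divided by the count in vehicle wells. Counts were taken on 4× images of lung cancer cell lines in 1536-well plates, 5 days after pin-tool dosing the day after seeding with one drug alone or a fixed anchor-drug dose plus five library-drug doses (not always all listed) in √10 steps.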

Vemurafenib + Vorinostat = compound: CCCS(=O)(=O)Nc1ccc(F)c(C(=O)c2c[nH]c3ncc(-c4ccc(Cl)cc4)cc23)c1F [Vemurafenib] + O=C(CCCCCCC(=O)Nc1ccccc1)NO [Vorinostat] (partner 1 µM)
How it was run: as §1

OSI-027 + AZD7762 = compound: COc1cccc2cc(-c3nc([C@H]4CC[C@H](C(=O)O)CC4)n4ncnc(N)c34)[nH]c12 [OSI-027] + NC(=O)Nc1cc(-c2cccc(F)c2)sc1C(=O)N[C@H]1CCCNC1 [AZD7762] (partner 0.2 µM)
How it was run: as §1

Alpelisib + Crizotinib = compound: Cc1nc(NC(=O)N2CCC[C@H]2C(N)=O)sc1-c1ccnc(C(C)(C)C(F)(F)F)c1 [Alpelisib] + C[C@@H](Oc1cc(-c2cnn(C3CCNCC3)c2)cnc1N)c1c(Cl)ccc(F)c1Cl [Crizotinib] (partner 1 µM)
How it was run: as §1

Cell Line	relative viability (OSI-027 + Palbociclib; first compound 0.01 µM)	relative viability (OSI-027 + Palbociclib; first compound 0.03162 µM)	relative viability (OSI-027 + Palbociclib; first compound 0.1 µM)	relative viability (OSI-027 + Palbociclib; first compound 0.3162 µM)	relative viability (OSI-027 + Palbociclib; first compound 1 µM)	relative viability (Vemurafenib + Vorinostat; first compound 0.03162 µM)	relative viability (Vemurafenib + Vorinostat; first compound 0.1 µM)	relative viability (Vemurafenib + Vorinostat; first compound 0.3162 µM)	relative viability (Vemurafenib + Vorinostat; first compound 1 µM)	relative viability (OSI-027 + AZD7762; first compound 0.01 µM)	relative viability (OSI-027 + AZD7762; first compound 0.03162 µM)	relative viability (OSI-027 + AZD7762; first compound 0.1 µM)	relative viability (OSI-027 + AZD7762; first compound 0.3162 µM)	relative viability (OSI-027 + AZD7762; first compound 1 µM)	relative viability (Alpelisib + Crizotinib; first compound 0.04 µM)	relative viability (Alpelisib + Crizotinib; first compound 0.1265 µM)	relative viability (Alpelisib + Crizotinib; first compound 0.4 µM)	relative viability (Alpelisib + Crizotinib; first compound 1.265 µM)	relative viability (Alpelisib + Crizotinib; first compound 4 µM)
201T	0.354	0.36	0.342	0.368	0.38	0.944	0.845	0.944	0.986	0.562	0.691	0.585	0.472	0.511	0.985	1	1.07	0.98	0.936
A549	–	–	–	–	–	–	–	–	–	–	–	–	–	–	0.698	0.707	0.625	0.389	0.405
A-427	0.538	0.516	0.453	0.414	0.386	0.807	0.819	–	0.875	0.676	0.52	0.557	0.541	0.399	0.775	0.835	1.11	0.773	0.653
ABC-1	0.828	0.531	0.476	0.444	0.553	1.06	0.972	0.831	1.45	0.886	0.764	0.728	0.555	0.602	1.19	1.28	1.04	0.886	0.713
BEN	0.487	0.47	0.425	0.471	0.472	0.494	0.592	0.402	0.503	0.698	0.604	0.435	0.464	0.463	0.956	0.95	1.04	0.884	0.866
CAL-12T	0.427	0.432	0.28	0.313	0.22	0.673	0.698	1.04	0.875	0.626	0.741	0.603	0.668	0.585	0.66	0.53	0.711	0.556	0.596
COR-L23	0.304	0.3	0.295	0.255	0.171	0.443	0.412	0.373	0.441	–	–	–	–	–	0.622	0.613	0.698	0.478	0.459
COR-L 105	0.393	0.406	0.369	0.389	0.423	0.838	–	0.903	0.815	–	–	–	–	–	0.697	1	0.879	0.691	0.695
Calu-6	–	–	–	–	–	–	–	–	–	–	–	–	–	–	0.772	0.691	0.911	0.753	0.559
ChaGo-K-1	0.946	0.942	0.904	0.87	0.774	0.743	0.762	0.605	0.762	0.912	0.902	0.936	0.836	0.756	1.13	–	1.15	0.988	0.841
EBC-1	–	–	–	–	–	–	–	–	–	–	–	–	–	–	0.229	0.177	0.204	0.199	0.177
EKVX	0.332	0.44	0.34	0.263	0.22	0.712	–	0.745	0.936	0.694	0.726	0.666	0.692	0.562	0.956	0.918	1.06	0.749	0.619
EMC-BAC-2	0.488	0.499	0.487	0.398	0.348	0.361	0.411	–	0.415	1.05	1.14	0.833	0.791	0.63	0.752	0.778	0.753	0.608	0.496
EPLC-272H	0.332	0.379	0.342	0.316	0.29	0.553	0.4	0.528	0.543	0.262	0.212	0.162	0.0961	0.124	0.75	0.788	1.09	0.713	0.653
H3255	0.294	0.309	0.303	0.271	0.321	0.758	–	0.709	0.638	0.888	0.958	0.714	0.832	0.613	0.85	1.05	1.16	0.631	0.675
HARA	0.307	0.272	0.196	0.195	0.165	0.424	0.517	0.399	0.54	0.27	0.301	0.36	0.419	0.365	1.04	1.03	1.15	0.845	0.622
HCC-15	0.689	0.67	0.717	0.591	0.402	0.775	0.8	0.899	0.805	1.14	1.21	1.19	1.28	0.986	0.814	0.798	0.901	0.668	0.651
HCC-44	0.904	0.945	0.955	0.929	0.877	1.09	1.01	1.09	1.16	0.984	1.03	1.03	1.06	1.1	0.78	0.723	0.833	0.773	0.634
HCC-78	0.484	0.452	0.483	0.45	0.411	0.425	0.351	0.79	0.4	0.62	0.638	0.488	0.499	0.354	0.289	0.294	0.318	0.234	0.242
HCC-366	0.465	0.348	0.412	0.309	0.1	0.271	0.38	–	0.306	0.393	0.325	0.216	0.285	0.217	0.488	0.459	0.585	0.215	0.0795
HCC-827	0.507	0.414	0.507	0.299	0.207	0.796	–	0.663	0.816	0.194	0.201	0.195	0.205	0.214	0.927	0.884	0.949	0.91	0.88
HOP-62	0.475	0.49	0.418	0.457	0.287	0.515	0.593	0.583	0.484	0.611	0.47	0.33	0.587	0.284	0.97	0.714	0.884	0.733	0.72

Cell Line	relative viability (OSI-027 + Palbociclib; first compound 0.01 µM)	relative viability (OSI-027 + Palbociclib; first compound 0.03162 µM)	relative viability (OSI-027 + Palbociclib; first compound 0.1 µM)	relative viability (OSI-027 + Palbociclib; first compound 0.3162 µM)	relative viability (OSI-027 + Palbociclib; first compound 1 µM)	relative viability (Vemurafenib + Vorinostat; first compound 0.03162 µM)	relative viability (Vemurafenib + Vorinostat; first compound 0.1 µM)	relative viability (Vemurafenib + Vorinostat; first compound 0.3162 µM)	relative viability (Vemurafenib + Vorinostat; first compound 1 µM)	relative viability (OSI-027 + AZD7762; first compound 0.01 µM)	relative viability (OSI-027 + AZD7762; first compound 0.03162 µM)	relative viability (OSI-027 + AZD7762; first compound 0.1 µM)	relative viability (OSI-027 + AZD7762; first compound 0.3162 µM)	relative viability (OSI-027 + AZD7762; first compound 1 µM)	relative viability (Alpelisib + Crizotinib; first compound 0.04 µM)	relative viability (Alpelisib + Crizotinib; first compound 0.1265 µM)	relative viability (Alpelisib + Crizotinib; first compound 0.4 µM)	relative viability (Alpelisib + Crizotinib; first compound 1.265 µM)	relative viability (Alpelisib + Crizotinib; first compound 4 µM)
IA-LM	–	–	–	–	–	0.975	0.914	0.946	0.966	–	–	–	–	–	0.829	0.643	1.23	0.718	0.818
NCI-H520	0.204	0.18	0.22	0.163	0.145	0.68	0.714	0.718	0.497	–	–	–	–	–	0.823	0.75	0.739	0.463	0.515
NCI-H522	0.995	0.938	1.04	0.79	0.535	0.901	0.846	0.835	0.714	0.807	0.89	0.68	0.672	0.612	–	–	–	–	–
NCI-H596	–	–	–	–	–	0.587	0.742	0.465	0.497	1.14	1.08	1.08	1.06	0.943	1.06	1.01	0.841	0.616	0.406
NCI-H661	0.375	0.424	0.368	0.347	0.301	0.73	0.72	0.803	0.749	–	–	–	–	–	0.968	0.96	1.07	1.01	0.937
NCI-H1299	–	–	–	–	–	–	–	–	–	–	–	–	–	–	0.935	0.943	1	0.996	0.936
NCI-H1395	0.654	0.609	0.529	0.45	0.505	0.627	0.707	0.499	0.709	0.316	0.398	0.396	0.352	0.386	–	–	–	–	–
NCI-H1563	–	–	–	–	–	–	–	–	–	–	–	–	–	–	0.877	0.89	0.753	0.775	0.707
NCI-H1648	0.37	0.267	–	0.222	0.266	–	0.315	0.706	0.546	0.813	0.572	–	0.705	0.667	–	–	–	–	–
NCI-H1650	0.361	0.344	0.278	0.357	0.286	0.466	0.477	0.682	0.485	–	–	–	–	–	1.01	0.941	1.02	0.847	0.956
NCI-H1703	–	–	–	–	–	–	–	–	–	–	0.0974	–	0.127	0.119	0.465	0.576	0.539	0.277	0.35
NCI-H1792	0.578	0.451	0.623	0.604	0.308	–	–	–	–	0.673	0.704	0.682	0.668	0.192	1.01	0.884	0.983	0.886	0.72
NCI-H1793	0.3	0.3	0.236	0.187	0.181	0.652	0.426	0.78	0.702	0.409	0.435	0.399	0.36	0.239	–	–	–	–	–
NCI-H2009	0.211	0.237	0.171	0.173	0.232	0.813	0.731	0.715	0.665	–	–	–	–	–	1.04	1.02	1.11	0.953	0.831
NCI-H2023	0.36	0.326	0.249	0.22	0.161	0.531	0.662	0.57	0.584	–	–	–	–	–	0.53	0.565	0.476	0.389	0.257
NCI-H2228	0.65	0.638	0.849	0.75	0.383	0.457	0.536	0.589	0.595	–	–	–	–	–	0.514	0.402	0.403	0.303	0.304
NCI-H2342	0.51	0.503	0.492	0.443	0.48	0.623	0.785	0.755	0.787	0.444	0.426	0.553	0.414	0.346	–	–	–	–	–
SK-LU-1	0.373	0.381	0.394	0.302	0.268	0.699	0.687	0.535	0.835	–	–	–	–	–	0.987	0.792	1.01	0.773	0.763
SK-MES-1	0.294	0.322	0.286	0.275	0.274	1.06	–	0.949	1.01	–	–	–	–	–	1.03	0.875	0.968	0.83	0.67
SW 900	0.531	0.579	0.577	0.375	0.288	0.41	0.466	0.636	0.379	0.669	0.575	0.499	0.508	0.402	–	–	–	–	–
SW 1573	0.388	0.389	0.356	0.333	0.216	0.655	0.767	0.473	0.537	–	–	–	–	–	0.867	0.784	0.689	0.649	0.593
